Measurements published in patent US5229367A, “Antiinflammatory peptide derived from human lipocortin V” (Sclavo S.p.A., priority 1991, dated 1993).
Values after ≈ are worked out from the molar mass of the structure shown. Where two headings read alike, the source gives them in different places. Peptide text beside a SMILES is read from it.

Tests used:
[1] = tested on: PLA2 induced oedema in rat paw; experiment: Inhibition of PLA2 induced oedema in rat paw; type: in vivo; conditions: 2 mg/Kg (400 μg) co-injected with 5 μg PLA2 into paw, mean of five
Protocol: The oedema induced by PLA2 in the rat paw was generated according to the modified technique of Marshall et al. (J. Cell Biochem. suppl. 12 E: S325, 1985). Practically, the enzyme phospholipase A2 (Naja Mocambique), with a specific activity of about 400 units/mg protein, was dissolved into a physiological solution comprising calcium chloride 1 mM to a final concentration of 100 μg/ml. Thereafter samples (0.5 ml) of said solution were diluted 1:1 (v/v) either with a physiological solution as such, or with a physiological solution comprising the synthetic peptide 204-212 at a concentration of 8 mg/ml. The thus obtained solutions were incubated at 37° C. for 15 min. At the end of this incubation period, 0.1 ml of the solutions either comprising 5 μg of PLA2 only, or additionally 400 μg of the synthetic peptide, were injected into the right back paw of male Wistar rats of 200 g weight (thus the synthetic peptide 204- 212 was given at a 2 mg/Kg dose). The oedema in the paw was measured by means of a water plesthysomometer 30 and 60 min after the injection. The results reported in Table 4 confirm the in vivo PLA2 inhibiting effect of the peptide 204-212.

[2] = target: T1, phospholipase A2 (pig pancreas phospholipase preparation) (Sus scrofa, UniProt P00592); experiment: Inhibition of PLA2 induced contractions in rat stomach strip; conditions: peptide 20 μg/ml, 30 min; PLA2 4.4 μg/ml; mean of four samples
T1 construct: pig pancreas phospholipase preparation from Sigma; purchased Sigma; host or cells: pig pancreas (tissue-derived preparation)
Protocol: The rat stomach bottom strip was prepared as originally described by Vane (Br. J. Pharmacol., 12: 344-349, 1957) and suspended in a small bath for resected organs, thermostated at 37° in Krebs solution. After two hours stabilisation in said bath, the stomach reacts to phospholipase A2 stimulation (pig pancreas phospholipase preparation from Sigma) by contracting. These contractions are recorded by means of an isotonic transductor on recorder (Firm Basile). The contracting effect of the PLA2 is concentration-dependent and a concentration of 4.4 μg/ml was used in the experiments with the peptide 204-212. The experiments were carried out as follows:
a) estimation of the stomach contracting effect by the PLA2 at the final concentration of 4.4 μg/ml (control value)
b) after thoroughly washing the strip, peptide (I) was added at the concentration of 20 μg/ml and the effect of the PLA2 was estimated again after 30 min (sample).

[3] = tested on: carrageenin induced oedema in rat paw; experiment: Inhibition of carrageenin induced oedema in rat paw; type: in vivo; conditions: for Oedema 3 hours Inhibition %: 3 hours after carrageenin; for Oedema 4 hours Inhibition %: 4 hours after carrageenin
Protocol: The carrageenin induced oedema in the rat paw was generated as disclosed by Parente et al. (Eur. J. Pharmacol., 99: 233-239, (1984). Practically 0.1 ml physiological solution comprising 1% (w/v) lambda carrageenin (Sigma) were injected subcutaneously into the right back paw of male Wistar rats weighing 200 g pretreated as follows: 5 rats (control) were locally inoculated with 100 μl sterile physiological solution; 5 rats were locally injected with 100 μl physiological solution comprising […] (respectively corresponding to a dose of 2 and 0.5 mg/Kg) synthetic peptide 204-212. The oedema was measured with a water plethysmometer 3 and 4 hours after the carrageenin injection. The results in Table 5 show an inhibition of the oedema due to the peptide 204-212 and moreover that the extent of the inhibition is dose-dependent.

human fibroblasts = conditions: for Inhibition %: PGE2 release, bradykinin 1 μM
Protocol: Thereafter 0.2 ml of said suspension were placed into each well of a 96 flat bottomed well Cluster dish (firm Costar) and incubated at 37° C. for 72 hours. At the end of said period the cells were washed three times with 0.2 ml medium without serum and then incubated for 60 min at 37° C. as follows:
one part in 0.2 ml DMEM medium without bovine foetal serum (control);
Bradykinin (Sigma) was added thereafter to the final concentration of 1 μM to all the samples, and the incubation was maintained for a further 30 min. Finally the determination of PGE2 in the cell-free supernatants was carried out by making use of a radioimmunoassay.

[4] = tested on: rat peritoneal leukocytes; experiment: Inhibition of zymosan-stimulated prostaglandin E2 release in rat peritoneal leukocytes (radioimmunoassay); type: cell-based; conditions: peptide 100 μg/ml
Protocol: Rat peritoneal leukocytes were collected and purified as described by Parente and Flower (supra), then suspended in Krebs solution oxygenated with Carbogen at a final concentration of 1.10^6 cells/ml. Samples (1 ml) of said suspension were incubated in a thermostatic bath at 37° C. for 30 min in the presence (100 μg/ml) and in the absence (control) of the synthetic peptide 204-212. The incubation was maintained for a further 60 min at 37° C. after addition to each culture of 200 μg/ml Zymosan (activated by opsonization, i.e. incubated with mouse serum for 30 min at 37° C.). At the end of this time the cells were separated from the suspension by centrifugation at 10,000 rpm for 5 min using an Eppendorf centrifuge model 5414. The supernatants thus recovered were analysed by radioimmunoassay to monitor the prostaglandin E2 (PGE2) levels.

T1 sequence (P00592 23-146): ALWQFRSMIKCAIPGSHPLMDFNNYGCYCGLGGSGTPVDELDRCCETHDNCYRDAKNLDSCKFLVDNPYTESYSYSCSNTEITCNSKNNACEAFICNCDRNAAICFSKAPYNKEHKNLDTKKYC

## CC(C)C[C@H](NC(=O)[C@H](Cc1c[nH]cn1)NC(=O)[C@@H](N)CO)C(=O)N[C@@H](CCCNC(=N)N)C(=O)N[C@@H](CCCCN)C(=O)N[C@H](C(=O)N[C@@H](Cc1ccccc1)C(=O)N[C@@H](CC(=O)O)C(=O)N[C@@H](CCCCN)C(=O)O)C(C)C [Peptide 204-212, H-Ser-His-Leu-Arg-Lys-Val-Phe-Asp-Lys-X] (H-SHLRKVFDK-OH)
[1]; 30 min after injection
  Oedema 30 min: 25.4 ± 7.7
[1]; 60 min after injection
  Oedema 60 min: 25.4 ± 7.8
[2]
  inhibition at 20 µg/mL: 60.5%
[3]; 0.5 mg/Kg local injection
  Oedema 3 hours Inhibition %: 22.7 ± 8.3%
  Oedema 4 hours Inhibition %: 13.7 ± 5.1%
[3]; 2.0 mg/Kg local injection
  Oedema 3 hours Inhibition %: 37.0 ± 3.3%
  Oedema 4 hours Inhibition %: 37.5 ± 10.1%
Human fibroblasts
  ED 50: 1.13 µg/mL (≈ 1 µM)
Human fibroblasts; 1 ng/ml
  Inhibition %: 0%
Human fibroblasts; 10 ng/ml
  Inhibition %: 16 ± 2%
Human fibroblasts; 100 ng/ml
  Inhibition %: 41 ± 7%
Human fibroblasts; 1 μg/ml
  Inhibition %: 43 ± 4%
Human fibroblasts; 10 μg/ml
  Inhibition %: 63 ± 7%
Human fibroblasts; 100 μg/ml
  Inhibition %: 94 ± 6%
[4]; PGE2 release
  Inhibition %: 49.8%
[4]; 200 μg/ml opsonized Zymosan, supernatant PGE2 level, mean of three samples plus standard error, control 253.7 + 22.8
  PGE2: 129.0 + 16.9
